In brackets after ≈: the same amount, converted by molar mass. Where two headings read alike, the source gives them in different places.
Tests used:
E. coli GC 2236 = assay: MIC, broth microdilution; details: Escherichia coli, GC2236, E. coli GC 2236
E. coli GC 2235 = assay: MIC, broth microdilution; details: Escherichia coli, GC2235, E. coli GC 2235
E. coli GC 2233 = assay: MIC, broth microdilution; details: Escherichia coli, GC2233, E. coli GC 2233
E. coli GC 2270 = assay: MIC, broth microdilution; details: Escherichia coli, GC2270, E. coli GC 2270
E. coli GC 2271 = assay: MIC, broth microdilution; details: Escherichia coli, GC2271, E. coli GC 2271
E. coli GC 4559 = assay: MIC, broth microdilution; details: Escherichia coli, GC4559, E. coli GC 4559
E. coli GC 4560 = assay: MIC, broth microdilution; details: Escherichia coli, GC4560, E. coli GC 4560
E. coli GC 6465 = assay: MIC, broth microdilution; details: Escherichia coli, GC6465, E. coli GC 6465
E. coli GC 2203 = assay: MIC, broth microdilution; details: Escherichia coli, GC2203, E. coli GC 2203
E. coli GC 1073 = assay: MIC, broth microdilution; details: Escherichia coli, GC1073, E. coli GC 1073
P. aeruginosa GC 2214 = assay: MIC, broth microdilution; details: Pseudomonas aeruginosa, GC2214, P. aeruginosa GC 2214
Experimental: (§1) Antimicrobial susceptibility testing. The in vitro activities of the antibiotics are determined by the broth microdilution method as recommended by the National Committee for Clinical Laboratory Standards (NCCLS) (1). Mueller-Hinton II broth (MHBII)(BBL Cockeysville, Md.) is the medium employed in the testing procedures. Microtiter plates containing serial dilutions of each antimicrobial agent are inoculated with each organism to yield the appropriate density (10^5 CFU/ml) in a 100 μl final volume. The plates are incubated for 18-22 hours at 35° C. in ambient air.
(§2) Representative compounds were first incubated in mouse serum for an hour prior to the in vitro testing against a panel of selected gram-positive and gram-negative bacteria strains. All compounds were also pre-incubated in water for an hour prior to testing as control.

S. aureus GC 6467 = assay: MIC, broth microdilution; details: Staphylococcus aureus, GC6467, S. aureus GC 6467
Experimental: as §1, §2

S. aureus GC 4536 = assay: MIC, broth microdilution; details: Staphylococcus aureus, GC4536, S. aureus GC 4536
S. aureus GC 6469 = assay: MIC, broth microdilution; details: Staphylococcus aureus, GC6469, S. aureus GC 6469
E. faecalis GC 4555 = assay: MIC, broth microdilution; details: Enterococcus faecalis, GC4555, E. faecalis GC 4555
E. faecalis GC 2265 = assay: MIC, broth microdilution; details: Enterococcus faecalis, GC2265, E. faecalis GC 2265
E. faecalis GC 2242 = assay: MIC, broth microdilution; details: Enterococcus faecalis, GC2242, E. faecalis GC 2242
Experimental: as §1
(§3) Representative compounds were first incubated in mouse serum for an hour prior to the in vitro testing against a panel of selected gram-positive and gram-negative bacteria strains. All compounds were also pre-incubated in water for an hour prior to testing as control. Representative compounds of Formula I were incubated in human serum prior to MIC determination.

S. agalactiae GC 4564 = assay: MIC, broth microdilution; details: Streptococcus agalactiae, GC4564, S. agalactiae GC 4564
E. coli = assay: Range of MIC for E. coli strains; details: Escherichia coli
Experimental: as §1, §3

Staph. = assay: Range of MIC for Staph. strains, including MRSA; details: Staphylococcus aureus, MRSA

With CCCCN(CC(=O)Nc1cc(N(C)C)c2c(c1O)C(=O)C1=C(O)[C@]3(O)C(=O)C(C(N)=O)=C(O)[C@@H](N(C)C)C3CC1C2)C(=O)OCOC(=O)c1ccc(C)cc1 (stereo partly drawn) [Example 3, ({[(2-{[(7S,10aS)-9-(aminocarbonyl)-4,7-bis(dimethylamino)-1,8,10a,11-tetrahydroxy-10,12-dioxo-5,5a,6,6a,7,10,10a,12-octahydrotetracen-2-yl]amino}-2-oxoethyl)(butyl)amino]carbonyl}oxy)methyl 4-methylbenzoate] as the compound, how does the MIC (E. coli GC 2236; Mouse Serum pre-incubation) read?
Its MIC is 1 µg/mL (≈ 1.29 µM).

And the MIC (E. coli GC 2236; Water pre-incubation)?
Its MIC is over 64 µg/mL.

And the MIC (E. coli GC 2235; Mouse Serum pre-incubation)?
The MIC was 1 µg/mL (≈ 1.29 µM).

And the MIC (E. coli GC 2235; Water pre-incubation)?
The MIC was over 64 µg/mL.

And the MIC (E. coli GC 2233; Mouse Serum pre-incubation)?
The MIC was 1 µg/mL (≈ 1.29 µM).

And the MIC (E. coli GC 2233; Water pre-incubation)?
The MIC was over 64 µg/mL.

And the MIC (E. coli GC 2270; Mouse Serum pre-incubation)?
Its MIC is 1 µg/mL (≈ 1.29 µM).

And the MIC (E. coli GC 2270; Water pre-incubation)?
The MIC was over 64 µg/mL.

What about the MIC (E. coli GC 2271; Mouse Serum pre-incubation) of the same compound?
The MIC was 1 µg/mL (≈ 1.29 µM).

What about the MIC (E. coli GC 2271; Water pre-incubation) of the same compound?
The MIC was over 64 µg/mL.

What about the MIC (E. coli GC 4559; Mouse Serum pre-incubation) of the same compound?
Its MIC is 2 µg/mL (≈ 2.57 µM).

And the MIC (E. coli GC 4559; Water pre-incubation)?
Its MIC is over 64 µg/mL.

What about the MIC (E. coli GC 4560; Mouse Serum pre-incubation) of the same compound?
Its MIC is 0.5 µg/mL (≈ 0.643 µM).

What about the MIC (E. coli GC 4560; Water pre-incubation) of the same compound?
The MIC was 32 µg/mL (≈ 41.1 µM).

What about the MIC (E. coli GC 6465; Mouse Serum pre-incubation) of the same compound?
The MIC was 8 µg/mL (≈ 10.3 µM).

What about the MIC (E. coli GC 6465; Water pre-incubation) of the same compound?
Its MIC is over 64 µg/mL.

And the MIC (E. coli GC 2203; Mouse Serum pre-incubation)?
Its MIC is 1 µg/mL (≈ 1.29 µM).

What about the MIC (E. coli GC 2203; Water pre-incubation) of the same compound?
The MIC was over 64 µg/mL.

What about the MIC (E. coli GC 1073; Mouse Serum pre-incubation) of the same compound?
Its MIC is 2 µg/mL (≈ 2.57 µM).

And the MIC (E. coli GC 1073; Water pre-incubation)?
The MIC was over 64 µg/mL.

What about the MIC (P. aeruginosa GC 2214; Mouse Serum pre-incubation) of the same compound?
Its MIC is 32 µg/mL (≈ 41.1 µM).

What about the MIC (P. aeruginosa GC 2214; Water pre-incubation) of the same compound?
The MIC was over 64 µg/mL.

And the MIC (S. aureus GC 6467; Mouse Serum pre-incubation)?
The MIC was 4 µg/mL (≈ 5.14 µM).

What about the MIC (S. aureus GC 6467; Water pre-incubation) of the same compound?
The MIC was 32 µg/mL (≈ 41.1 µM).

What about the MIC (S. aureus GC 4536; Mouse Serum pre-incubation) of the same compound?
The MIC was 2 µg/mL (≈ 2.57 µM).

What about the MIC (S. aureus GC 4536; Water pre-incubation) of the same compound?
The MIC was 4 µg/mL (≈ 5.14 µM).

And the MIC (S. aureus GC 6469; Mouse Serum pre-incubation)?
Its MIC is 4 µg/mL (≈ 5.14 µM).

And the MIC (S. aureus GC 6469; Water pre-incubation)?
The MIC was 32 µg/mL (≈ 41.1 µM).

And the MIC (E. faecalis GC 4555; Mouse Serum pre-incubation)?
Its MIC is 1 µg/mL (≈ 1.29 µM).

And the MIC (E. faecalis GC 4555; Water pre-incubation)?
Its MIC is 8 µg/mL (≈ 10.3 µM).

What about the MIC (E. faecalis GC 2265; Mouse Serum pre-incubation) of the same compound?
Its MIC is 2 µg/mL (≈ 2.57 µM).

What about the MIC (E. faecalis GC 2265; Water pre-incubation) of the same compound?
Its MIC is 32 µg/mL (≈ 41.1 µM).

What about the MIC (E. faecalis GC 2242; Mouse Serum pre-incubation) of the same compound?
Its MIC is 2 µg/mL (≈ 2.57 µM).

And the MIC (E. faecalis GC 2242; Water pre-incubation)?
The MIC was 16 µg/mL (≈ 20.6 µM).

And the MIC (S. agalactiae GC 4564; Mouse Serum pre-incubation)?
Its MIC is 1 µg/mL (≈ 1.29 µM).

And the MIC (S. agalactiae GC 4564; Water pre-incubation)?
The MIC was 2 µg/mL (≈ 2.57 µM).

What about the MIC (E. coli; 20 h, read-out: Range of MIC, E. coli (Mouse Serum)) of the same compound?
Its MIC is 1 to 2 µg/mL (≈ 1.29 to 2.57 µM).

What about the MIC (E. coli; read-out: Minimum inhibitory concentration (MIC), E. coli (mouse serum)) of the same compound?
Its MIC is 1 to 2 µg/mL (≈ 1.29 to 2.57 µM).

What about the MIC (E. coli; read-out: Minimum inhibitory concentration (MIC), E. coli (water)) of the same compound?
Its MIC is over 64 µg/mL.

What about the MIC (E. coli; read-out: Range of MIC, E. coli (Water)) of the same compound?
The MIC was over 64 µg/mL.

And the MIC (Staph.; read-out: Minimum inhibitory concentration (MIC), Staph. (mouse serum))?
Its MIC is 1 to 4 µg/mL (≈ 1.29 to 5.14 µM).

What about the MIC (Staph.; read-out: Minimum inhibitory concentration (MIC), Staph. (water)) of the same compound?
The MIC was 4 to 32 µg/mL (≈ 5.14 to 41.1 µM).

What about the MIC (Staph.; read-out: Range of MIC, Staph (Mouse Serum)) of the same compound?
Its MIC is 1 to 4 µg/mL (≈ 1.29 to 5.14 µM).

And the MIC (Staph.; read-out: Range of MIC, Staph (Water))?
The MIC was 4 to 32 µg/mL (≈ 5.14 to 41.1 µM).

— patent US20070049564A1 (Wyeth, priority 2005, published 2007)
